Reference: the supplement of paper PMC11208160

Test: recombinant barcode read abundance after kanamycin selection (control-corrected) (log10(CPM+1)); higher = more efficient recombination; sequences stand for … in AGTGCAGAGAAAATCGGCCAGTTTTCTCTGCCTGCAGTCCGCATGCCGT…AGATTTATGCAGCGGACTGCCTTTCTCCCAAAGTGATAAACCGGACAGTATCATGGACCGGTTTTCCCGGTAATCCGTATTTGCAAGGTTGGTTTCACT; site = the 11-nt target
How it was run: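 Values are log10(CPM+1) from a pooled E. coli screen of targets paired with IS621 bridge RNA target-binding loops. Recombination efficiency here means counts per million of recombinant-junction barcodes, averaged and control-corrected. Plates were chloramphenicol/ampicillin LB agar for the control and chloramphenicol/ampicillin/kanamycin with 0.1 mM IPTG, two replicates each.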
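Further: IS621 recombinase and bridge RNA in Escherichia coli cells.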

| Sequence | recombinant barcode read abundance (log10) |
| --- | --- |
| GGGCCCGCTTGGGTTCTAACCTGTTGCTA (site GGTCCCGCTTG) | 0.0696 |
| GGGCCTACTTGGGTTCTAACCTGTTGCTC (site GGGCCTACTAA) | 0.248 |
| GGGCCTACTTGGGTTCTAACCTGTTGCTC (site GGGCCTACTCA) | 0.0546 |
| GGGCCTACTTGGGTTCTAACCTGTTGCTC (site GGGCCTACTGA) | 0.29 |
| GGGCCTACTTGGGTTCTAACCTGTTGCTC (site GGGCCTACTTA) | 0.171 |
| GGGCCTACTTGGGTTCTAACCTGTTGCTT (site GGGCCTACTAA) | 0.914 |
| GGGCCTACTTGGGTTCTAACCTGTTGCTT (site GGGCCTACTCA) | 0.369 |
| GGGCCTACTTGGGTTCTAACCTGTTGCTT (site GGGCCTACTGA) | 0.255 |
| GGGCCTACTTGGGTTCTAACCTGTTGCTT (site GGGCCTACTTA) | 0.063 |
| GGGCCTTCTTGGGTTCTAACCTGTTGCAT (site GGGACTTCTAT) | 0.24 |
| GGGCCTTCTTGGGTTCTAACCTGTTGCAT (site GGGCCTTCTAT) | 1.07 |
| GGGCCTTCTTGGGTTCTAACCTGTTGCAT (site GGGGCTTCTAT) | 0.31 |
| GGGCCTTCTTGGGTTCTAACCTGTTGCAT (site GGGTCTTCTAT) | 0.0646 |
| GGGGACCCTTGGGTTCTAACCTGTTGCGA (site GGGGACCCTAC) | 1.74 |
| GGGGACCCTTGGGTTCTAACCTGTTGCGA (site GGGGACCCTCC) | 0.877 |
| GGGGACCCTTGGGTTCTAACCTGTTGCGA (site GGGGACCCTGC) | 0.247 |
| GGGGACCCTTGGGTTCTAACCTGTTGCGA (site GGGGACCCTTC) | 2.48 |
| GGGGACCCTTGGGTTCTAACCTGTTGCGC (site GGGGACCCTAC) | 2.24 |

| Sequence | recombinant barcode read abundance (log10) |
| --- | --- |
| GGGGACCCTTGGGTTCTAACCTGTTGCGC (site GGGGACCCTCC) | 0.0282 |
| GGGGACCCTTGGGTTCTAACCTGTTGCGC (site GGGGACCCTGC) | 3.3 |
| GGGGACCCTTGGGTTCTAACCTGTTGCGC (site GGGGACCCTTC) | 0.283 |
| GGGGAGCCTTGGGTTCTAACCTGTTGCGG (site GGGGAGCCTCC) | 2.38 |
| GGGGAGCCTTGGGTTCTAACCTGTTGCGG (site GGGGATCCTTC) | 0.335 |
| GGGGCACCTTGGGTTCTAACCTGTTGCGT (site GGGGCACCTAA) | 1.16 |
| GGGGCACCTTGGGTTCTAACCTGTTGCGT (site GGGGCACCTAC) | 3.72 |
| GGGGCACCTTGGGTTCTAACCTGTTGCGT (site GGGGCACCTAG) | 0.492 |
| GGGGCACCTTGGGTTCTAACCTGTTGCGT (site GGGGCACCTAT) | 2.61 |
| GGGGCATCTTGGGTTCTAACCTGTTGCCT (site GGGACATCTAG) | 0.105 |
| GGGGCATCTTGGGTTCTAACCTGTTGCCT (site GGGGCATCTAG) | 0.0863 |
| GGGGCATCTTGGGTTCTAACCTGTTGCTT (site GGGGCATCTAA) | 0.95 |
| GGGGCATCTTGGGTTCTAACCTGTTGCTT (site GGGGCCTCTAA) | 0.0583 |
| GGGGCATCTTGGGTTCTAACCTGTTGCTT (site GGGGCGTCTAA) | 0.0873 |
| GGGGCATCTTGGGTTCTAACCTGTTGCTT (site GGGGCTTCTAA) | 0.0362 |
| GGGGCCTCTTGGGTTCTAACCTGTTGCAG (site GGGGCCTCTCT) | 3.05 |
| GGGGCCTCTTGGGTTCTAACCTGTTGCAG (site GGTGCCTCTAT) | 0.213 |
| GGGGCGACTTGGGTTCTAACCTGTTGCCT (site GGGGCGACTAG) | 0.358 |
